These are literature values, as cited in PMC4257705 (Organic letters, 2009).

The target in the data set is αVβ3. The conditions noted are these: tripeptide sequence Arg-Gly-Asp (RGD).

With Arg-Gly-Asp [RGD], the Kd – broadly, the concentration at which binding is half-saturated – was around 1 nM.
